In assay [1] the target is T1, RAGE (receptor for advanced glycation end products) (Homo sapiens, UniProt Q15109).
T1 construct: gene AGER
Put plainly: SPR (Biacore 1S+, CM5 chip, RAGE immobilized, multi-cycle kinetics); known RAGE inhibitor as reference. In kind it is binding.

In assay [2] the target is T1, RAGE (receptor for advanced glycation end products). Put plainly: SPR (Biacore 1S+, CM5 chip, RAGE immobilized, multi-cycle kinetics). In kind it is binding. A general note: In SPR one partner is held on a chip, and binding of the other changes the refractive index at the surface.

T1 sequence (Q15109 23-344): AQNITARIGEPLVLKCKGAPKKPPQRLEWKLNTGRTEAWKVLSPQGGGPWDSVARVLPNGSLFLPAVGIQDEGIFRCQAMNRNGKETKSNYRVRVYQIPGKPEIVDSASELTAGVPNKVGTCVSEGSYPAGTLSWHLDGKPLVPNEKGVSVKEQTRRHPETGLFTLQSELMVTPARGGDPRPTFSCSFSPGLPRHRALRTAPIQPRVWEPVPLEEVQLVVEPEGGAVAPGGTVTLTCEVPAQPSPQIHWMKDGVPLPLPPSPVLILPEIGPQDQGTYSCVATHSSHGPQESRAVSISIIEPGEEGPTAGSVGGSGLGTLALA

A word on the Kd: it is a measure of binding affinity in units of concentration. Low values mean a tighter complex, high ones a looser complex. Compound `O=C(c1ccc(Cl)cc1)N(Cc1ccccc1)C1CCCCC1` [FPS-ZM1] came in with a Kd in assay [1] of 40.7 µM.

As to `O=C1c2c(O)cc(O)cc2O[C@H](c2cc(O)c(O)c(O)c2)[C@H]1O` [DHM, Dihydromyricetin], in assay [2], the Kd was 28.7 µM.

The values above are taken from PMC12156997, “Dihydromyricetin May Attenuate Skin Aging as a RAGE Inhibitor” (Nutrients, 2025).
